These compounds were tested on beta-TC6 cells (assay: Insulin HTRF assay (relative activity Ar) in beta-TC6 cells). Conditions: Mus musculus, Beta-TC6, 4 h, insulin HTRF, supernatant of beta-TC6 cells, incubation with test compound at 37°C for 2, 3, 4h; read-out: Ar (relative activity).
Assay type: cell-based, mouse
Method in brief: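 beta-TC6 cells (15k/well, seeded 24 or 48 h) washed, then exposed to compound in induction buffer (0.5% DMSO final) for 2, 3 or 4 h at 37°C.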
Compound `c1ccc(Nc2nccc3[nH]c(-c4ccc5c(c4)OCCO5)nc23)cc1` [Compound 412, 2-(2,3-dihydro-1,4-benzodioxin-6-yl)-N-phenyl-1H-imidazo[4,5-c]pyridin-4-amine] has an Emax of 30 to 50%.
Compound `CC(C)CNc1nccc2[nH]c(-c3ccc4c(c3)OCCO4)nc12` [Compound 413, 2-(2,3-dihydro-1,4-benzodioxin-6-yl)-N-isobutyl-1H-imidazo[4,5-c]pyridin-4-amine] has an Emax of 30 to 50%.
Work on `COc1ccc(Nc2nccc3[nH]c(-c4ccc5c(c4)OCCO5)nc23)cc1` [Compound 414, 2-(2,3-dihydro-1,4-benzodioxin-6-yl)-N-(4-methoxyphenyl)-1H-imidazo[4,5-c]pyridin-4-amine] yielded an Emax of 50 to 100%.
In the case of `OCCNc1nccc2[nH]c(-c3ccc4c(c3)OCCO4)nc12` [Compound 416, 2-[[2-(2,3-dihydro-1,4-benzodioxin-6-yl)-1H-imidazo[4,5-c]pyridin-4-yl]amino]ethanol], the Emax is reported as 30 to 50%.
`CS(=O)(=O)c1cccc(Nc2nccc3[nH]c(-c4ccc5c(c4)OCCO5)nc23)c1` [Compound 417, 2-(2,3-dihydro-1,4-benzodioxin-6-yl)-N-(3-methylsulfonylphenyl)-1H-imidazo[4,5-c]pyridin-4-amine] gave an Emax of 30 to 50%.
With `Oc1cccc(Nc2nccc3[nH]c(-c4ccc5c(c4)OCCO5)nc23)c1` [Compound 418, 3-[[2-(2,3-dihydro-1,4-benzodioxin-6-yl)-1H-imidazo[4,5-c]pyridin-4-yl]amino]phenol] the Emax was 50 to 100%.
`c1cc2[nH]c(-c3ccc4c(c3)OCCO4)nc2c(NCC2CC2)n1` [Compound 419, N-(cyclopropylmethyl)-2-(2,3-dihydro-1,4-benzodioxin-6-yl)-1H-imidazo[4,5-c]pyridin-4-amine] gave an Emax of 50 to 100%.
With `COCCCNc1nccc2[nH]c(-c3ccc4c(c3)OCCO4)nc12` [Compound 420, 2-(2,3-dihydro-1,4-benzodioxin-6-yl)-N-(3-methoxypropyl)-1H-imidazo[4,5-c]pyridin-4-amine] the Emax was 30 to 50%.
Compound `COc1cc(Nc2nccc3[nH]c(-c4ccncc4)nc23)cc(OC)c1OC` [Compound 421, 2-(4-pyridyl)-N-(3,4,5-trimethoxyphenyl)-1H-imidazo[4,5-c]pyridin-4-amine] has an Emax of 50 to 100%.
`COc1cccc(Nc2nccc3[nH]c(-c4ccncc4)nc23)c1` [Compound 422, N-(3-methoxyphenyl)-2-(4-pyridyl)-1H-imidazo[4,5-c]pyridin-4-amine] was tested, and the Emax was 30 to 50%.
`COc1ccc(Nc2nccc3[nH]c(-c4ccncc4)nc23)cc1OC` [Compound 423, N-(3,4-dimethoxyphenyl)-2-(4-pyridyl)-1H-imidazo[4,5-c]pyridin-4-amine] gave an Emax of over 100%.
For `Clc1cccc(Nc2nccc3[nH]c(-c4ccncc4)nc23)c1` [Compound 424, N-(3-chlorophenyl)-2-(4-pyridyl)-1H-imidazo[4,5-c]pyridin-4-amine], the Emax was 30 to 50%.
`CCN(CC)CCNC(=O)c1ccc(Nc2nccc3[nH]c(-c4ccncc4)nc23)cc1` [Compound 425, N-(2-diethylaminoethyl)-4-[[2-(4-pyridyl)-1H-imidazo[4,5-c]pyridin-4-yl]amino]benzamide] gave an Emax of 50 to 100%.
Work on `CN(C)c1cccc(Nc2nccc3[nH]c(-c4ccncc4)nc23)c1` [Compound 426, N1,N1-dimethyl-N3-[2-(4-pyridyl)-1H-imidazo[4,5-c]pyridin-4-yl]benzene-1,3-diamine] yielded an Emax of 50 to 100%.
Compound `COc1ccc(Nc2nccc3[nH]c(-c4ccncc4)nc23)cc1` [Compound 427, N-(4-methoxyphenyl)-2-(4-pyridyl)-1H-imidazo[4,5-c]pyridin-4-amine] has an Emax of 50 to 100%.
With `c1ccc(CNc2nccc3[nH]c(-c4ccncc4)nc23)cc1` [Compound 428, N-benzyl-2-(4-pyridyl)-1H-imidazo[4,5-c]pyridin-4-amine] the Emax was 30 to 50%.
`CC(C)[C@H](CO)Nc1nccc2[nH]c(-c3ccncc3)nc12` [Compound 429, (2R)-3-methyl-2-[[2-(4-pyridyl)-1H-imidazo[4,5-c]pyridin-4-yl]amino]butan-1-ol] showed an Emax of 0 to 30%.
Compound `CN(C)c1ccc(CNc2nccc3[nH]c(-c4ccncc4)nc23)cc1` [Compound 430, N-[(4-dimethylaminophenyl)methyl]-2-(4-pyridyl)-1H-imidazo[4,5-c]pyridin-4-amine] has an Emax of 50 to 100%.
Work on `Oc1cccc(Nc2nccc3[nH]c(-c4ccncc4)nc23)c1` [Compound 431, 3-[[2-(4-pyridyl)-1H-imidazo[4,5-c]pyridin-4-yl]amino]phenol] yielded an Emax of 50 to 100%.
`COc1ccc(Nc2nccc3[nH]c(-c4ccncc4)nc23)cc1O` [Compound 432, 2-methoxy-5-[[2-(4-pyridyl)-1H-imidazo[4,5-c]pyridin-4-yl]amino]phenol] was tested, and the Emax was over 100%.
For `Clc1ccc(CNc2nccc3[nH]c(-c4ccncc4)nc23)cc1` [Compound 433, N-[(4-chlorophenyl)methyl]-2-(4-pyridyl)-1H-imidazo[4,5-c]pyridin-4-amine], the Emax was 30 to 50%.
`c1ccc(CCNc2nccc3[nH]c(-c4ccncc4)nc23)cc1` [Compound 434, N-phenethyl-2-(4-pyridyl)-1H-imidazo[4,5-c]pyridin-4-amine] showed an Emax of 30 to 50%.
Compound `COc1cc(Nc2nccc3[nH]c(-c4cccc(C)c4)nc23)cc(OC)c1OC` [Compound 435, 2-(m-tolyl)-N-(3,4,5-trimethoxyphenyl)-1H-imidazo[4,5-c]pyridin-4-amine] has an Emax of 50 to 100%.
`COc1ccc(Nc2nccc3[nH]c(-c4cccc(C)c4)nc23)cc1OC` [Compound 436, N-(3,4-dimethoxyphenyl)-2-(m-tolyl)-1H-imidazo[4,5-c]pyridin-4-amine] gave an Emax of 50 to 100%.
With `Cc1cccc(-c2nc3c(NCCc4ccccn4)nccc3[nH]2)c1` [Compound 437, 2-(m-tolyl)-N-[2-(2-pyridyl)ethyl]-1H-imidazo[4,5-c]pyridin-4-amine] the Emax was 30 to 50%.
With `Cc1cccc(-c2nc3c(Nc4cccc(O)c4)nccc3[nH]2)c1` [Compound 438, 3-[[2-(m-tolyl)-1H-imidazo[4,5-c]pyridin-4-yl]amino]phenol] the Emax was 30 to 50%.
`Cc1cccc(-c2nc3c(Nc4cccc(NS(C)(=O)=O)c4)nccc3[nH]2)c1` [Compound 439, N-[3-[[2-(m-tolyl)-1H-imidazo[4,5-c]pyridin-4-yl]amino]phenyl]methanesulfonamide] was tested, and the Emax was 30 to 50%.
Compound `COc1ccc(Nc2nccc3[nH]c(-c4ccc(F)c(F)c4)nc23)cc1OC` [Compound 440, 2-(3,4-difluorophenyl)-N-(3,4-dimethoxyphenyl)-1H-imidazo[4,5-c]pyridin-4-amine] has an Emax of 30 to 50%.
For `Oc1cccc(Nc2nccc3[nH]c(-c4ccc(F)c(F)c4)nc23)c1` [Compound 441, 3-[[2-(3,4-difluorophenyl)-1H-imidazo[4,5-c]pyridin-4-yl]amino]phenol], the Emax was 30 to 50%.
`CN1CCN(c2nccc3[nH]c(-c4cccc(OC(F)(F)F)c4)nc23)CC1` [Compound 442, 4-(4-methylpiperazin-1-yl)-2-[3-(trifluoromethoxy)phenyl]-1H-imidazo[4,5-c]pyridine] was tested, and the Emax was 30 to 50%.
In the case of `OC1CCC(Nc2nccc3[nH]c(-c4cccc(OC(F)(F)F)c4)nc23)CC1` (stereo not drawn) [Compound 443, 4-[[2-[3-(trifluoromethoxy)phenyl]-1H-imidazo[4,5-c]pyridin-4-yl]amino]cyclohexanol], the Emax is reported as 30 to 50%.
With `COc1ccc(Nc2nccc3[nH]c(-c4cccc(OC(F)(F)F)c4)nc23)cc1O` [Compound 444, 2-methoxy-5-[[2-[3-(trifluoromethoxy)phenyl]-1H-imidazo[4,5-c]pyridin-4-yl]amino]phenol] the Emax was 30 to 50%.
`FC(F)(F)Oc1cccc(-c2nc3c(NCc4ccccn4)nccc3[nH]2)c1` [Compound 445, N-(2-pyridylmethyl)-2-[3-(trifluoromethoxy)phenyl]-1H-imidazo[4,5-c]pyridin-4-amine] showed an Emax of 30 to 50%.
For `FC(F)(F)Oc1cccc(-c2nc3c(N4CCOCC4)nccc3[nH]2)c1` [Compound 446, 4-[2-[3-(trifluoromethoxy)phenyl]-1H-imidazo[4,5-c]pyridin-4-yl]morpholine], the Emax was 30 to 50%.
With `COc1ccc(Nc2nccc3c2ncn3C)cc1OC` [Compound 447, N-(3,4-dimethoxyphenyl)-1-methyl-imidazo[4,5-c]pyridin-4-amine] the Emax was 50 to 100%.
`Cn1cnc2c(Nc3ccc4[nH]ccc4c3)nccc21` [Compound 448, N-(1H-indol-5-yl)-1-methyl-imidazo[4,5-c]pyridin-4-amine] was tested, and the Emax was 50 to 100%.
For `c1ccc(Cn2cnc3c(NC4CCCCC4)nccc32)cc1` [Compound 449, 1-benzyl-N-cyclohexyl-imidazo[4,5-c]pyridin-4-amine], the Emax was 50 to 100%.
With `CN(C)c1cccc(Nc2nccc3c2ncn3C)c1` [Compound 450, N1,N1-dimethyl-N3-(1-methylimidazo[4,5-c]pyridin-4-yl)benzene-1,3-diamine] the Emax was 30 to 50%.
For `c1ccc(Cn2cnc3c(NCc4ccco4)nccc32)cc1` [Compound 451, 1-benzyl-N-(2-furylmethyl)imidazo[4,5-c]pyridin-4-amine], the Emax was 0 to 30%.
`c1ccc(Cn2cnc3c(NCc4cccs4)nccc32)cc1` [Compound 452, 1-benzyl-N-(2-thienylmethyl)imidazo[4,5-c]pyridin-4-amine] was tested, and the Emax was 30 to 50%.
`c1ccc(Cn2cnc3c(NCc4ccc5c(c4)OCO5)nccc32)cc1` [Compound 454, N-(1,3-benzodioxol-5-ylmethyl)-1-benzyl-imidazo[4,5-c]pyridin-4-amine] showed an Emax of 50 to 100%.
In the case of `COc1ccc(CNc2nccc3c2ncn3Cc2ccccc2)cc1` [Compound 455, 1-benzyl-N-[(4-methoxyphenyl)methyl]imidazo[4,5-c]pyridin-4-amine], the Emax is reported as 0 to 30%.
Work on `CC(C)c1ccc(Nc2nccc3c2ncn3Cc2ccccc2)cc1` [Compound 457, 1-benzyl-N-(4-isopropylphenyl)imidazo[4,5-c]pyridin-4-amine] yielded an Emax of 30 to 50%.
Compound `COc1ccc(Nc2nccc3[nH]c(-c4ccccc4Cl)nc23)cc1OC` [Compound 458, 2-(2-chlorophenyl)-N-(3,4-dimethoxyphenyl)-1H-imidazo[4,5-c]pyridin-4-amine] has an Emax of 50 to 100%.
Compound `Clc1ccccc1-c1nc2c(NCCc3ccncc3)nccc2[nH]1` [Compound 459, 2-(2-chlorophenyl)-N-[2-(4-pyridyl)ethyl]-1H-imidazo[4,5-c]pyridin-4-amine] has an Emax of 0 to 30%.
